From US20240398805A1, “QUINAZOLINE DERIVED COMPOUNDS AS EGFR INHIBITORS AND THEIR USES THEREOF” (ACCUTAR BIOTECHNOLOGY INC., priority 2021, published 2024)

Tests used:
Assay type in all cases: cell-based
HCC827 cells = experiment: Cell growth inhibition (CellTiter-Glo, 3 days) in HCC827; conditions: Homo sapiens, 72 h, 3 days after administration
Outline: (§1)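 Growth inhibition was scored by CellTiter-Glo luminescence after 3-day compound exposure at various concentrations. Cells were plated at 5000/well the day before treatment: A431 in DMEM and HCC827 in RPMI, each with 10% FBS.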

[1] = system: HCC827-YVMA cells (human ERBB2 exon20 insertion mutant A775_G776ins YVMA); experiment: Cell growth inhibition (CellTiter-Glo, 3 days) in HCC827-YVMA; conditions: 72 h, 3 days after administration
Outline: (§2)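 HCC827 cells lentivirally transduced with codon-optimized ASV or YVMA insertion mutants were seeded at 5000 cells/well in RPMI with 10% FBS and incubated overnight. Compound was added at various concentrations from a 10× stock in medium, with 3 days' incubation. Viability read by CellTiter-Glo luminescence.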

[2] = system: HCC827-ASV cells (human EGFR exon 20 insertion mutant A769_D770insASV); experiment: Cell growth inhibition (CellTiter-Glo, 3 days) in HCC827-ASV; conditions: 72 h, 3 days after administration
Outline: as §2

A431 cells = experiment: Cell growth inhibition (CellTiter-Glo, 3 days) in A431; conditions: Homo sapiens, A-431, 72 h, 3 days after administration
Outline: as §1

[3] = system: HCC827-SVD cells (human EGFR exon 20 insertion mutant D770_N771 insSVD); experiment: Cell growth inhibition (CellTiter-Glo, 3 days) in HCC827-SVD; conditions: 72 h, 3 days after administration
Outline: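 HCC827 cells carrying lentiviral codon-optimized EGFR D770_N771 insSVD, with endogenous EGFR knocked out by CRISPR (single clone), seeded at 5000 cells/well in RPMI with 10% FBS. Viability read by CellTiter-Glo luminescence.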

Row | Structure (SMILES) | GI50 (HCC827 cells) [µM] | GI50 [1] [µM] | GI50 [2] [µM] | GI50 (A431 cells) [µM] | GI50 [3] [µM]
1 | C=CC(=O)N1CCC(Nc2cc3c(Nc4ccc(Oc5ccnc(-n6cc(C)cn6)n5)cc4F)ncnc3cc2OC)CC1 [Example 39, 1-(4-((4-((2-fluoro-4-((2-(4-methyl-1H-pyrazol-1-yl)pyrimidin-4-yl)oxy)phenyl)amino)-7-methoxyquinazolin-6-yl)amino)piperidin-1-yl)prop-2-en-1-one] | 0.06 to 0.1 | < 0.03 | < 0.03 | 0.3 to 0.6 | < 0.03
2 | C=CC(=O)N1CCC(Nc2cc3c(Nc4ccc(Oc5ccnc(N6CCC[C@@H](O)C6)c5)cc4F)ncnc3cc2OC)CC1 [Example 214, (R)-1-(4-((4-((2-fluoro-4-((2-(3-hydroxypiperidin-1-yl)pyridin-4-yl)oxy)phenyl)amino)-7-methoxyquinazolin-6-yl)amino)piperidin-1-yl)prop-2-en-1-one] | 0.3 to 0.6 | < 0.03 | < 0.03 | ≥ 1 | 0.03 to 0.06
3 | C=CC(=O)N1CCC(Nc2cc3c(Nc4ccc(Oc5ccnc(N6C[C@@H]7OCCO[C@@H]7C6)c5)cc4F)ncnc3cc2OC)CC1 [Example 254, 1-(4-((4-((2-fluoro-4-((2-((4aR,7aS)-hexahydro-6H-[1,4]dioxino[2,3-c]pyrrol-6-yl)pyridin-4-yl)oxy)phenyl)amino)-7-methoxyquinazolin-6-yl)amino)piperidin-1-yl)prop-2-en-1-one] | 0.06 to 0.1 | < 0.03 | < 0.03 | ≥ 1 | < 0.03

Other lines, results leading:

Row | GI50 (HCC827 cells) [µM] | GI50 [1] [µM] | GI50 [2] [µM] | GI50 (A431 cells) [µM] | GI50 [3] [µM] | Structure (SMILES)
4 | ≥ 1 | ≥ 1 | ≥ 1 | ≥ 1 | ≥ 1 | C=CC(=O)N1CCC(Oc2cc3c(Nc4ccc(Oc5ccnc(N6CCN(C(C)C)CC6)c5)cc4F)ncnc3cc2OC)CC1 [Example 157, 1-(4-((4-((2-fluoro-4-((2-(4-isopropylpiperazin-1-yl)pyridin-4-yl)oxy)phenyl)amino)-7-methoxyquinazolin-6-yl)oxy)piperidin-1-yl)prop-2-en-1-one]
5 | ≥ 1 | 0.6 to 1 | 0.1 to 0.3 | ≥ 1 | 0.1 to 0.3 | C=CC(=O)N1CCC(Nc2cc3c(Nc4ccc(Oc5ccnc(N6CCN(C(C)=O)CC6)c5)cc4F)ncnc3cc2OC)CC1 [Example 120, 1-(4-((4-((4-((2-(4-acetylpiperazin-1-yl)pyridin-4-yl)oxy)-2-fluorophenyl)amino)-7-methoxyquinazolin-6-yl)amino)piperidin-1-yl)prop-2-en-1-one]
